Measurements reported in PubChem BioAssay AID2060626 (Molecular Pharmacology Branch, DTP, NCI, 2025).

Tested on: 168753-222-R-J1-PDC complex spheroid viability
Test: Anticancer human tumor 168753-222-R-J1-PDC patient-derived bladder carcinoma cell line growth inhibition [CLK]
Conditions: for IC50: curve of first compound; for viability, T/C: stronger effect = lower value
How it was run: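 Multi-cell-type spheroids combined patient-derived tumor cells with HUVEC endothelial cells and human mesenchymal stem cells. Paired agents were dosed in half-log steps down from about clinical Cmax, or from 10 microM where Cmax was unknown.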

[1] = second compound 0.0316 µM, first compound 0.0316 µM
[2] = second compound 0.0316 µM, first compound 0.1 µM
[3] = second compound 0.0316 µM, first compound 0.316 µM
[4] = second compound 0.0316 µM, first compound 1 µM
[5] = second compound 0.0316 µM, first compound 3.16 µM
[6] = second compound 0.0316 µM, first compound 10 µM
[7] = second compound 0.1 µM, first compound 0.0316 µM
[8] = second compound 0.1 µM, first compound 0.1 µM
[9] = second compound 0.1 µM, first compound 0.316 µM
[10] = second compound 0.1 µM, first compound 1 µM
[11] = second compound 0.1 µM, first compound 3.16 µM
[12] = second compound 0.1 µM, first compound 10 µM
[13] = second compound 0.316 µM, first compound 0.0316 µM
[14] = second compound 0.316 µM, first compound 0.1 µM
[15] = second compound 0.316 µM, first compound 0.316 µM
[16] = second compound 0.316 µM, first compound 1 µM
[17] = second compound 0.316 µM, first compound 3.16 µM
[18] = second compound 0.316 µM, first compound 10 µM
[19] = second compound 1 µM, first compound 0.0316 µM
[20] = second compound 1 µM, first compound 0.1 µM
[21] = second compound 1 µM, first compound 0.316 µM
[22] = second compound 1 µM, first compound 1 µM
[23] = second compound 1 µM, first compound 3.16 µM
[24] = second compound 1 µM, first compound 10 µM
[25] = second compound 3.16 µM, first compound 0.0316 µM
[26] = second compound 3.16 µM, first compound 0.1 µM
[27] = second compound 3.16 µM, first compound 0.316 µM
[28] = second compound 3.16 µM, first compound 1 µM
[29] = second compound 3.16 µM, first compound 3.16 µM
[30] = second compound 3.16 µM, first compound 10 µM
[31] = second compound 10 µM, first compound 0.0316 µM
[32] = second compound 10 µM, first compound 0.1 µM
[33] = second compound 10 µM, first compound 0.316 µM
[34] = second compound 10 µM, first compound 1 µM
[35] = second compound 10 µM, first compound 3.16 µM
[36] = second compound 10 µM, first compound 10 µM
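Also: viability measured after seven days of drug exposure.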
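For viability, T/C in this document: luminescence signal used as surrogate for viable cell amount; 100% = DMSO vehicle control wells.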

Question: `COc1ccc([C@@H](O)c2cc(-c3ncnc4cc(N5CCOCC5)ccc34)c(F)cc2Cl)nn1` + CN1CCN(c2cc(C(=O)Nc3cc4cc(-c5cnn(C)c5)ccc4cn3)ccn2)CC1 was tested. Which IC50 (second compound 0.0316 µM) did it give?
Answer: 361 nM

Question: And the IC50 (second compound 0.1 µM)?
Answer: 47.5 nM

Question: And the IC50 (second compound 0.316 µM)?
Answer: < 31.6 nM

Question: What about the IC50 (second compound 1 µM) of the same compound?
Answer: < 31.6 nM

Question: And the IC50 (second compound 3.16 µM)?
Answer: < 31.6 nM

Question: And the IC50 (second compound 10 µM)?
Answer: < 31.6 nM

Question: What about the viability, T/C [1] of the same compound?
Answer: 95.5%

Question: And the viability, T/C [2]?
Answer: 82.1%

Question: What about the viability, T/C [3] of the same compound?
Answer: 55.6%

Question: What about the viability, T/C [4] of the same compound?
Answer: 19.2%

Question: What about the viability, T/C [5] of the same compound?
Answer: 11.7%

Question: What about the viability, T/C [6] of the same compound?
Answer: 7.52%

Question: And the viability, T/C [7]?
Answer: 63%

Question: And the viability, T/C [8]?
Answer: 26.1%

Question: What about the viability, T/C [9] of the same compound?
Answer: 13.6%

Question: What about the viability, T/C [10] of the same compound?
Answer: 13.1%

Question: What about the viability, T/C [11] of the same compound?
Answer: 10.1%

Question: And the viability, T/C [12]?
Answer: 7.24%

Question: And the viability, T/C [13]?
Answer: 9.76%

Question: And the viability, T/C [14]?
Answer: 8.36%

Question: And the viability, T/C [15]?
Answer: 8.98%

Question: And the viability, T/C [16]?
Answer: 7.9%

Question: What about the viability, T/C [17] of the same compound?
Answer: 7.78%

Question: What about the viability, T/C [18] of the same compound?
Answer: 3.67%

Question: And the viability, T/C [19]?
Answer: 0.16%

Question: And the viability, T/C [20]?
Answer: 0.12%

Question: What about the viability, T/C [21] of the same compound?
Answer: 0.13%

Question: What about the viability, T/C [22] of the same compound?
Answer: 0.07%

Question: What about the viability, T/C [23] of the same compound?
Answer: 0.79%

Question: And the viability, T/C [24]?
Answer: 0.13%

Question: What about the viability, T/C [25] of the same compound?
Answer: 0.05%

Question: And the viability, T/C [26]?
Answer: 0.08%

Question: And the viability, T/C [27]?
Answer: 0.15%

Question: What about the viability, T/C [28] of the same compound?
Answer: 0.05%

Question: And the viability, T/C [29]?
Answer: 0.09%

Question: And the viability, T/C [30]?
Answer: 0.54%

Question: And the viability, T/C [31]?
Answer: 0.04%

Question: What about the viability, T/C [32] of the same compound?
Answer: 0.81%

Question: And the viability, T/C [33]?
Answer: 1.23%

Question: And the viability, T/C [34]?
Answer: 0.1%

Question: What about the viability, T/C [35] of the same compound?
Answer: 0.4%

Question: What about the viability, T/C [36] of the same compound?
Answer: 0.47%

Question: For `COc1cccc2c1C(=O)c1c(O)c3c(c(O)c1C2=O)CC(O)(C(=O)CO)CC3OC1CC(N)C(O)C(C)O1` (stereo unspecified) + CN1CCN(c2cc(C(=O)Nc3cc4cc(-c5cnn(C)c5)ccc4cn3)ccn2)CC1, which IC50 (second compound 0.0316 µM) is on record?
Answer: 33.1 nM

Question: What about the IC50 (second compound 0.1 µM) of the same compound?
Answer: < 31.6 nM

Question: And the IC50 (second compound 0.316 µM)?
Answer: < 31.6 nM

Question: What about the IC50 (second compound 1 µM) of the same compound?
Answer: < 31.6 nM

Question: What about the IC50 (second compound 3.16 µM) of the same compound?
Answer: < 31.6 nM

Question: And the IC50 (second compound 10 µM)?
Answer: < 31.6 nM

Question: And the viability, T/C [1]?
Answer: 51.4%

Question: What about the viability, T/C [2] of the same compound?
Answer: 31.8%

Question: What about the viability, T/C [3] of the same compound?
Answer: 23.1%

Question: And the viability, T/C [4]?
Answer: 6.97%

Question: What about the viability, T/C [5] of the same compound?
Answer: 7.48%

Question: What about the viability, T/C [6] of the same compound?
Answer: 0.18%

Question: What about the viability, T/C [7] of the same compound?
Answer: 38.4%

Question: And the viability, T/C [8]?
Answer: 15.5%

Question: And the viability, T/C [9]?
Answer: 10.5%

Question: What about the viability, T/C [10] of the same compound?
Answer: 7.96%

Question: And the viability, T/C [11]?
Answer: 5.89%

Question: What about the viability, T/C [12] of the same compound?
Answer: 0.16%

Question: What about the viability, T/C [13] of the same compound?
Answer: 8.86%

Question: What about the viability, T/C [14] of the same compound?
Answer: 8.74%

Question: What about the viability, T/C [15] of the same compound?
Answer: 7.81%

Question: What about the viability, T/C [16] of the same compound?
Answer: 6.39%

Question: And the viability, T/C [17]?
Answer: 0.05%

Question: And the viability, T/C [18]?
Answer: 0.05%

Question: And the viability, T/C [19]?
Answer: 0.13%

Question: What about the viability, T/C [20] of the same compound?
Answer: 0.11%

Question: What about the viability, T/C [21] of the same compound?
Answer: 0.17%

Question: What about the viability, T/C [22] of the same compound?
Answer: 0.05%

Question: And the viability, T/C [23]?
Answer: 0.48%

Question: What about the viability, T/C [24] of the same compound?
Answer: 1.29%

Question: And the viability, T/C [25]?
Answer: 1.25%

Question: What about the viability, T/C [26] of the same compound?
Answer: 0.09%

Question: What about the viability, T/C [27] of the same compound?
Answer: 0.07%

Question: What about the viability, T/C [28] of the same compound?
Answer: 0.05%

Question: What about the viability, T/C [29] of the same compound?
Answer: 0.27%

Question: What about the viability, T/C [30] of the same compound?
Answer: 0.95%

Question: And the viability, T/C [31]?
Answer: 0.04%

Question: And the viability, T/C [32]?
Answer: 0.26%

Question: And the viability, T/C [33]?
Answer: 0.34%

Question: And the viability, T/C [34]?
Answer: 0.08%

Question: What about the viability, T/C [35] of the same compound?
Answer: 0.95%

Question: And the viability, T/C [36]?
Answer: 0.95%

Question: With `C=C(F)C(=O)N1CCN(c2nc(OCC3CCCN3C)nc3c2CCN(c2cccc4cccc(Cl)c24)C3)CC1CC#N` (stereo unspecified) + CNC(=O)c1ccc(Nc2nc(OC3CCCC3)c3c(-c4ccc5nc(C)oc5c4)c[nH]c3n2)c(OC)c1 as the compound, how does the IC50 (second compound 0.0316 µM) read?
Answer: > 10000 nM

Question: What about the IC50 (second compound 0.1 µM) of the same compound?
Answer: 7020 nM

Question: What about the IC50 (second compound 0.316 µM) of the same compound?
Answer: 8050 nM

Question: And the IC50 (second compound 1 µM)?
Answer: 41.2 nM

Question: What about the IC50 (second compound 3.16 µM) of the same compound?
Answer: < 31.6 nM

Question: And the IC50 (second compound 10 µM)?
Answer: < 31.6 nM

Question: What about the viability, T/C [1] of the same compound?
Answer: 104%

Question: What about the viability, T/C [2] of the same compound?
Answer: 120%

Question: And the viability, T/C [3]?
Answer: 102%

Question: What about the viability, T/C [4] of the same compound?
Answer: 102%

Question: And the viability, T/C [5]?
Answer: 110%

Question: What about the viability, T/C [6] of the same compound?
Answer: 52.8%

Question: What about the viability, T/C [7] of the same compound?
Answer: 94.1%

Question: What about the viability, T/C [8] of the same compound?
Answer: 103%

Question: And the viability, T/C [9]?
Answer: 83.9%

Question: And the viability, T/C [10]?
Answer: 96.2%

Question: What about the viability, T/C [11] of the same compound?
Answer: 96.5%

Question: What about the viability, T/C [12] of the same compound?
Answer: 30%

Question: And the viability, T/C [13]?
Answer: 79.5%

Question: What about the viability, T/C [14] of the same compound?
Answer: 75.8%

Question: And the viability, T/C [15]?
Answer: 81.9%

Question: What about the viability, T/C [16] of the same compound?
Answer: 74.3%

Question: And the viability, T/C [17]?
Answer: 90%

Question: What about the viability, T/C [18] of the same compound?
Answer: 43.1%

Question: And the viability, T/C [19]?
Answer: 50.1%

Question: What about the viability, T/C [20] of the same compound?
Answer: 50.6%

Question: What about the viability, T/C [21] of the same compound?
Answer: 45.5%

Question: What about the viability, T/C [22] of the same compound?
Answer: 28.8%

Question: And the viability, T/C [23]?
Answer: 46.8%

Question: And the viability, T/C [24]?
Answer: 31.7%

Question: And the viability, T/C [25]?
Answer: 23.4%

Question: And the viability, T/C [26]?
Answer: 26.8%

Question: And the viability, T/C [27]?
Answer: 26.3%

Question: And the viability, T/C [28]?
Answer: 17.8%

Question: What about the viability, T/C [29] of the same compound?
Answer: 18.4%

Question: What about the viability, T/C [30] of the same compound?
Answer: 18.1%

Question: What about the viability, T/C [31] of the same compound?
Answer: 22.6%

Question: And the viability, T/C [32]?
Answer: 21.2%

Question: And the viability, T/C [33]?
Answer: 24.7%

Question: What about the viability, T/C [34] of the same compound?
Answer: 19.3%

Question: What about the viability, T/C [35] of the same compound?
Answer: 17.5%

Question: What about the viability, T/C [36] of the same compound?
Answer: 14.6%
